Test results reported in patent publication US20050014751A1, “Use of n-acyl homoserine lactones for the treatment of insulitis” (priority 2001, published 2005).

What was measured:
TNF-α production = conditions: Infection and Immunity, vol.66, no.1, January 1998; cited from earlier work
TNF-alpha production = TNF-alpha production from LPS-stimulated human PBMC; type: cell-based; conditions: LPS 5×10^−5 μg/ml, 100,000 PBMC, 24 h, ELISA
Procedure: Bacterial lipopolysaccharide (LPS) stimulates the production of a variety of cytokines, including TNF-alpha, from human PBMC; these cytokines in turn influence the development of T cells, supporting a T helper 1 conducive milieu. Human PBMC prepared from whole blood by buoyant density centrifugation were resuspended in CTCM. HSL compounds were again tested at similar dilutions as for murine splenocytes in 200 μl of CTCM, containing 5×10^−5 μg/ml LPS Escherichia coli strain 055:B5 (Sigma, Poole, UK) and 100,000 PBMC. Following incubation for 24 h at 37° C. in 5% CO2-air, the cell culture supernatants were collected and tested for TNF-alpha levels by ‘sandwich’ ELISA. Briefly, 96-well Nunc MaxiSorp (Life Technologies, Paisley, UK) plates were coated with 50 μl of a 2 μg/ml solution of mouse anti-human TNF-alpha monoclonal antibody (Pharmingen, UK) in 0.05 M carbonate/bicarbonate buffer, pH 9.6 overnight at 4° C. After washing the plates three times with PBS-Tween, which contained phosphate buffered saline (PBS) with 0.5% (vol/vol) Tween 20 (Sigma, Poole, UK), the plates were blocked with 1% (wt/vol) bovine serum albumin (BSA) (Sigma, Poole, UK) at room temperature for 2 h. […] Following four washes, the bound biotinylated antibody was detected with 50 μl of a 1:1,000 dilution of Streptavidin-peroxidase (Pharmingen, UK). […] The enzyme reaction was stopped with 50 μl of 2.5 M H2SO4 after an incubation of 10 minutes at room temperature and the development was read at 450 nm with a spectrophotometric 96-well plate reader (Dynex). […]
Similar studies were carried out using, as the HSL compounds, N-(12-bromo-3-oxododecanoyl)-L-homoserine lactone (12BrOdDHL) and N-(12-hydroxy-3-oxododecanoyl)-L-homoserine lactone (12hydroxyOdDHL) and the plots for these are shown in FIG. 9. […] The IC50 value for dexamethasone was determined to be 500.
(§1) In the cell culture assays the number of cells used (mouse splenocytes and human PBMC) was initially optimised to 100,000 cells per well. The optimal dose of ConA of 1 μg/ml used in the cell proliferation assays was determined from ConA titration curves. […]

human PBMC = assay: ConA mitogen-stimulated proliferation of human PBMC; type: cell-based; conditions: ConA 1 μg/ml, 100,000 PBMC
Procedure: Blood specimens were obtained with consent from healthy human volunteers. Human peripheral blood mononuclear cells (PBMC) were isolated from heparinised whole blood by buoyant density centrifugation over Histopaque 1077 (Sigma, Poole, UK) at 600 g for 20 minutes. PBMC harvested from the ‘buffy’ layers were washed twice with RPMI 1640 medium and resuspended in CTCM. HSL compounds were tested at similar dilutions as for murine splenocytes in 200 μl of CTCM, containing 1 μg/ml of ConA and 100,000 PBMC. Human PBMC were incubated for 48 h at 37° C. in 5% CO2-air, followed by pulsing with 0.25 μCi [^3H]-thymidine (see above). After a further incubation of 24 h cells were harvested onto fibreglass filters and then counted in the presence of MicroScint-O with the Packard TopCount.
Concanavalin induced cell proliferation of human peripheral blood mononuclear cells (PBMC) was tracked, as described in I above, by a measurement of counts per minute using the scintillation counter. The inhibitory effect of an HSL compound being tested on cell proliferation was indicated by a reduction in counts per minute. […]
as §1

diabetes in NOD mice = assay: Alleviation of diabetes in NOD mice (incidence of diabetes, Uristix); type: in vivo; conditions: above 6 mMol glucose/l = diabetes
Procedure: The ability of the lead compound (OdDHL) to alleviate diabetes in NOD mice was determined by treating the mice 3 times per week for 4 weeks at 30 mg/kg as above. DMSO and OHHL were used as controls.
Diabetes was diagnosed using Uristix and a level of above 6 mMol glucose/I was taken to indicate the presence of diabetes.

NOD mice = assay: Comparative immune toxicity assessment in NOD mice; type: in vivo
Procedure: The overt immune toxicity of OdDHL was investigated using the dose regime described above in Example 5 for the alleviation of insulitis or diabetes in NOD mice. […] Splenocytes from the mice were taken along the time course of treatment (3 times a week for 4 weeks) and were stained with anti-CD-3 (pan T-cell), anti-CD4 (helper T-cell), anti-CD8 (cytotoxic T-cell) and anti-CD19 (B cell) antibodies for 30 minutes on ice. Cells were washed twice in PBS/BSA and then fixed in 0.5% formaldehyde. Cell phenotypes were analysed on BD FACScan.

SMILES: CCCCCCCCCC(=O)CC(=O)N[C@H]1CCOC1=O [OdDHL, N-(3-oxododecanoyl)-L-homoserine Lactone]
- inhibition of TNF-α production by LPS-stimulated adherent murine peritoneal macrophages (TNF-α production): inhibiting
- inhibition of TNF-α secretion (FIG. 8) (TNF-alpha production): inhibited the secretion
- inhibition of proliferation of human PBMC ([3H]-thymidine cpm, FIG. 7) (human PBMC): inhibited proliferation
- incidence of diabetes (diabetes in NOD mice; Week of Experiment 20, 30 mg/kg 3 times per week for 4 weeks): 0/11
- incidence of diabetes (diabetes in NOD mice; Week of Experiment 30, 30 mg/kg 3 times per week for 4 weeks, week 30 of experiment): 5/20
- overt immune toxicity (CD3, CD4, CD8, CD19 splenocyte populations, FACScan, FIG. 12) (NOD mice; 3 times a week for 4 weeks): lack of overt immune toxicology
- body weight gain of treated mice (NOD mice; dose regime of Example 5, vs non-treated littermates): gained weight identically to their non-treated littermates
